Data published in the CheMixHub ionic liquid set.

Assay: xn = mol fraction of the nth substance listed
Details: 100 kPa

CCCCCCCCCCCCCCCC[N+](C)(C)C.[Br-] + NCC(=O)NCC(=O)O + O
Details	electrical conductivity [S/m]
293.15 K, x1 = 3.61e-06, x2 = 0.0001802	0.0032
293.15 K, x1 = 5.41e-06, x2 = 0.0001802	0.0042
293.15 K, x1 = 7.22e-06, x2 = 0.0001802	0.0053
293.15 K, x1 = 9.02e-06, x2 = 0.0001802	0.006
293.15 K, x1 = 3.428e-05, x2 = 0.0001802	0.0097
293.15 K, x1 = 3.608e-05, x2 = 0.0001802	0.0099
298.15 K, x1 = 1.8e-06, x2 = 9.009e-05	0.0016
298.15 K, x1 = 3.61e-06, x2 = 9.009e-05	0.0027
298.15 K, x1 = 5.41e-06, x2 = 9.009e-05	0.0037
298.15 K, x1 = 5.41e-06, x2 = 0.0001802	0.0044
298.15 K, x1 = 7.21e-06, x2 = 9.009e-05	0.0048
298.15 K, x1 = 7.22e-06, x2 = 0.0001802	0.0054
298.15 K, x1 = 9.02e-06, x2 = 0.0001802	0.0062
298.15 K, x1 = 1.082e-05, x2 = 9.009e-05	0.0065
298.15 K, x1 = 1.082e-05, x2 = 0.0001802	0.0072
298.15 K, x1 = 1.262e-05, x2 = 1.802e-05	0.0046
298.15 K, x1 = 2.885e-05, x2 = 9.009e-05	0.0094
298.15 K, x1 = 3.067e-05, x2 = 0.0001802	0.0098
298.15 K, x1 = 3.245e-05, x2 = 9.009e-05	0.0099
303.15 K, x1 = 1.8e-06, x2 = 9.009e-05	0.0018
303.15 K, x1 = 3.61e-06, x2 = 9.009e-05	0.0029
303.15 K, x1 = 3.61e-06, x2 = 0.0001802	0.0036
303.15 K, x1 = 5.41e-06, x2 = 0.0001802	0.0046
303.15 K, x1 = 7.21e-06, x2 = 9.009e-05	0.005
303.15 K, x1 = 7.22e-06, x2 = 0.0001802	0.0055
303.15 K, x1 = 9.02e-06, x2 = 9.009e-05	0.006
303.15 K, x1 = 9.02e-06, x2 = 0.0001802	0.0064
303.15 K, x1 = 1.081e-05, x2 = 1.802e-05	0.0044
303.15 K, x1 = 1.082e-05, x2 = 9.009e-05	0.007
303.15 K, x1 = 1.082e-05, x2 = 0.0001802	0.0073
303.15 K, x1 = 1.262e-05, x2 = 1.802e-05	0.0051
303.15 K, x1 = 1.262e-05, x2 = 9.009e-05	0.0078
303.15 K, x1 = 1.263e-05, x2 = 0.0001802	0.0081
303.15 K, x1 = 1.622e-05, x2 = 1.802e-05	0.0061
303.15 K, x1 = 1.623e-05, x2 = 9.009e-05	0.0089
303.15 K, x1 = 1.624e-05, x2 = 0.0001802	0.009
303.15 K, x1 = 1.802e-05, x2 = 1.802e-05	0.0065
303.15 K, x1 = 1.803e-05, x2 = 9.009e-05	0.0092
303.15 K, x1 = 1.804e-05, x2 = 0.0001802	0.0098
303.15 K, x1 = 1.982e-05, x2 = 1.802e-05	0.007
303.15 K, x1 = 1.983e-05, x2 = 9.009e-05	0.0094
303.15 K, x1 = 1.984e-05, x2 = 0.0001802	0.0099
303.15 K, x1 = 2.164e-05, x2 = 9.009e-05	0.0095
303.15 K, x1 = 2.344e-05, x2 = 9.009e-05	0.0097
303.15 K, x1 = 2.524e-05, x2 = 9.009e-05	0.0099
303.15 K, x1 = 2.703e-05, x2 = 1.802e-05	0.0079
303.15 K, x1 = 2.883e-05, x2 = 1.802e-05	0.0081
303.15 K, x1 = 3.064e-05, x2 = 1.802e-05	0.0082
303.15 K, x1 = 3.244e-05, x2 = 1.802e-05	0.0084
303.15 K, x1 = 3.424e-05, x2 = 1.802e-05	0.0084
303.15 K, x1 = 3.604e-05, x2 = 1.802e-05	0.0086
308.15 K, x1 = 1.8e-06, x2 = 9.009e-05	0.0018
308.15 K, x1 = 1.8e-06, x2 = 0.0001802	0.003
308.15 K, x1 = 3.61e-06, x2 = 9.009e-05	0.003
308.15 K, x1 = 3.61e-06, x2 = 0.0001802	0.0039
308.15 K, x1 = 5.41e-06, x2 = 9.009e-05	0.0042
308.15 K, x1 = 5.41e-06, x2 = 0.0001802	0.0049
308.15 K, x1 = 7.21e-06, x2 = 9.009e-05	0.0052
308.15 K, x1 = 7.22e-06, x2 = 0.0001802	0.0057
308.15 K, x1 = 9.02e-06, x2 = 0.0001802	0.0066
308.15 K, x1 = 1.081e-05, x2 = 1.802e-05	0.0047
308.15 K, x1 = 1.262e-05, x2 = 1.802e-05	0.0055
308.15 K, x1 = 1.262e-05, x2 = 9.009e-05	0.0081
308.15 K, x1 = 1.442e-05, x2 = 1.802e-05	0.006
308.15 K, x1 = 1.622e-05, x2 = 1.802e-05	0.0063
308.15 K, x1 = 1.624e-05, x2 = 0.0001802	0.0099
308.15 K, x1 = 1.802e-05, x2 = 1.802e-05	0.0068
308.15 K, x1 = 1.803e-05, x2 = 9.009e-05	0.01
308.15 K, x1 = 2.163e-05, x2 = 1.802e-05	0.0076
308.15 K, x1 = 2.343e-05, x2 = 1.802e-05	0.0077
308.15 K, x1 = 2.523e-05, x2 = 1.802e-05	0.008
308.15 K, x1 = 2.703e-05, x2 = 1.802e-05	0.0082
308.15 K, x1 = 2.883e-05, x2 = 1.802e-05	0.0084
308.15 K, x1 = 3.064e-05, x2 = 1.802e-05	0.0084
308.15 K, x1 = 3.244e-05, x2 = 1.802e-05	0.0086
308.15 K, x1 = 3.424e-05, x2 = 1.802e-05	0.0087
308.15 K, x1 = 3.604e-05, x2 = 1.802e-05	0.009
313.15 K, x1 = 1.8e-06, x2 = 9.009e-05	0.0019
313.15 K, x1 = 1.8e-06, x2 = 0.0001802	0.0031
313.15 K, x1 = 3.61e-06, x2 = 9.009e-05	0.0033
313.15 K, x1 = 3.61e-06, x2 = 0.0001802	0.004
313.15 K, x1 = 5.41e-06, x2 = 9.009e-05	0.0045
313.15 K, x1 = 5.41e-06, x2 = 0.0001802	0.005
313.15 K, x1 = 7.21e-06, x2 = 1.802e-05	0.0039
313.15 K, x1 = 7.21e-06, x2 = 9.009e-05	0.0055
313.15 K, x1 = 7.22e-06, x2 = 0.0001802	0.0059
313.15 K, x1 = 9.02e-06, x2 = 9.009e-05	0.0064
313.15 K, x1 = 9.02e-06, x2 = 0.0001802	0.0067
313.15 K, x1 = 1.082e-05, x2 = 9.009e-05	0.0075
313.15 K, x1 = 1.082e-05, x2 = 0.0001802	0.0078
313.15 K, x1 = 1.262e-05, x2 = 1.802e-05	0.006
313.15 K, x1 = 1.262e-05, x2 = 9.009e-05	0.0084
313.15 K, x1 = 1.263e-05, x2 = 0.0001802	0.0085
313.15 K, x1 = 1.442e-05, x2 = 1.802e-05	0.0065
313.15 K, x1 = 1.442e-05, x2 = 9.009e-05	0.0091
313.15 K, x1 = 1.443e-05, x2 = 0.0001802	0.0094
313.15 K, x1 = 1.622e-05, x2 = 1.802e-05	0.0069
313.15 K, x1 = 1.802e-05, x2 = 1.802e-05	0.0075
313.15 K, x1 = 1.982e-05, x2 = 1.802e-05	0.0078
313.15 K, x1 = 2.163e-05, x2 = 1.802e-05	0.0081
313.15 K, x1 = 2.343e-05, x2 = 1.802e-05	0.0082
313.15 K, x1 = 2.523e-05, x2 = 1.802e-05	0.0084
313.15 K, x1 = 2.703e-05, x2 = 1.802e-05	0.0086
313.15 K, x1 = 2.883e-05, x2 = 1.802e-05	0.0089
313.15 K, x1 = 3.064e-05, x2 = 1.802e-05	0.009
313.15 K, x1 = 3.244e-05, x2 = 1.802e-05	0.0093
313.15 K, x1 = 3.424e-05, x2 = 1.802e-05	0.0095
313.15 K, x1 = 3.604e-05, x2 = 1.802e-05	0.0097
